US11540999B2, “Deodorant compositions” (The Procter & Gamble Company, priority 2017, dated 2023)
Where a name gives a salt, the structure may show the parent alone.

These molecules were tested on two key underarm bacteria strains (assay: Raw material microbial inhibition, verbal summary of Table 2). Details: both strains of Table 2, in words.
Assay type: cell-based
Procedure: The data in Table 2 above was generated with the following test method.
3. Microbial Strains • Staphylococcus epidermidis (clinical isolate) • Corynebacterium mucofaciens (clinical isolate)
In row A of a 96 deep well plate pipette 180 ul of sterile BHI with 1% Tween 80 as a negative growth control. All other wells receive 180 ul of inoculum. From the master plate introduce 20 ul to the corresponding row in the test plate using an 8-channel pipette. Loaded plates are placed on a plate shaker in the 37° C. incubator and incubated overnight. The next day read the O.D. 600 on a plate reader. The MIC is the last well from the right that has no bacterial growth.

Structure (SMILES) | performance against the bacteria as raw materials
CCOC(=O)CC(O)(CC(=O)OCC)C(=O)OCC [Triethyl citrate] | performing well
COC(=O)CCC(=O)OC [Dimethyl Succinate] | performing well
Cc1cc(CC(C)CC(C)(C)C)n(O)c(=O)c1.NCCO (stereo not shown) [piroctone olamine] | perform particularly well
CC(C)=CCCC(C)=CC=O [Citral] | performing well
C=CCCCCCCCCC(=O)N[C@@H](Cc1ccccc1)C(=O)O [Sepiwhite] | performing well
O=C([O-])[O-].[Ca+2] [Ca Carbonate, calcium carbonate] | performing moderately well
C=CCc1ccc(O)c(OC)c1 [Eugenol] | performing well
